Laboratory results taken from the Kinase Knowledgebase extract (Sharma et al. 2016).

Molecular target: EGFR (UniProt P00533)
Sequence (P00533 whole entry, looked up): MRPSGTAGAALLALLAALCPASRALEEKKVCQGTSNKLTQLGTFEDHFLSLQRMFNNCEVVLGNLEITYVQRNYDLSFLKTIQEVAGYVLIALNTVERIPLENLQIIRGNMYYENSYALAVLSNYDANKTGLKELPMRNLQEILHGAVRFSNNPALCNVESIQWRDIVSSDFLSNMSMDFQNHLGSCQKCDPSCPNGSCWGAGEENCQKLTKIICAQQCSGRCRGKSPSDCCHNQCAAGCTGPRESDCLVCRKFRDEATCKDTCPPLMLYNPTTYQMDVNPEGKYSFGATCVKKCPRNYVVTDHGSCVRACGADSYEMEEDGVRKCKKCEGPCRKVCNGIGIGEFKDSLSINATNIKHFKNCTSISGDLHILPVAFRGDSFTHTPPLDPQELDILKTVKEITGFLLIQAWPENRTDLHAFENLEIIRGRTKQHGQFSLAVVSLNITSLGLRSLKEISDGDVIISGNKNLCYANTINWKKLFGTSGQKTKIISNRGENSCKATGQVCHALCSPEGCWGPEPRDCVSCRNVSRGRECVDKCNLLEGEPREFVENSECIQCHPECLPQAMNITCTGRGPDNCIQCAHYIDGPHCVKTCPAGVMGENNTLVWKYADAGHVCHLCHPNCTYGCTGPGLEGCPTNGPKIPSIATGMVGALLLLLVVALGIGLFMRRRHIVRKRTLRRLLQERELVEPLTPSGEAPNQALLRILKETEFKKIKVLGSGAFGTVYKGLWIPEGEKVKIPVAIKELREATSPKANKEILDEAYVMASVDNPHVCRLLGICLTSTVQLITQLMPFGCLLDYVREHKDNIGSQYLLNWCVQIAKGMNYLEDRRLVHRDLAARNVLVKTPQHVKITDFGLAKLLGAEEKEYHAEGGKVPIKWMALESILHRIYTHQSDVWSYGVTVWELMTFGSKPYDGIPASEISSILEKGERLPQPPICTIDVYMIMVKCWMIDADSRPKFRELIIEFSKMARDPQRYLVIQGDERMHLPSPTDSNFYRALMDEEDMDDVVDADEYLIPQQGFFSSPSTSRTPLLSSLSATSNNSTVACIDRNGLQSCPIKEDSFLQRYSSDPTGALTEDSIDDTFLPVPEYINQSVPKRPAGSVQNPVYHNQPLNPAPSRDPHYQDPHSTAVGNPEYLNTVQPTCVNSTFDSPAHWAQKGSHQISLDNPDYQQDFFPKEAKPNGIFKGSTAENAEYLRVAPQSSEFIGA

IC50 [nM] | SMILES
< 50 | COc1cc2c(Nc3ccc(F)c(Cl)c3F)ncnc2cc1OCC1CN(C)CCO1 (stereo unspecified)
< 50 | COc1cc2c(Nc3ccc(Cl)c(Cl)c3)ncnc2cc1OCC1CN(C2CCN(C)CC2)CCO1 (stereo unspecified)
< 50 | COc1cc2c(Nc3ccc(Br)c(Cl)c3)ncnc2cc1O[C@H]1CO[C@@H]2[C@H]1OC[C@@H]2SC
< 50 | COc1cc2c(Nc3ccc(Cl)c(Cl)c3)ncnc2cc1OCC1CCCO1 (stereo unspecified)
< 50 | COc1cc2c(Nc3ccc(Br)c(Cl)c3)ncnc2cc1O[C@H]1CO[C@H]2[C@@H]1OC[C@@H]2OC(F)F
< 50 | COc1cc2c(Nc3ccc(Cl)c(Cl)c3)ncnc2cc1OCC1CN(c2ccncc2)CCO1 (stereo unspecified)
< 50 | CCN1CCC[C@H]1c1noc(COc2cc3ncnc(Nc4ccc(Cl)c(Cl)c4)c3cc2OC)n1
< 50 | COc1cc2c(Nc3cc(Cl)c(Cl)cc3F)ncnc2cc1O[C@@H]1CO[C@@H]2[C@H]1OC[C@H]2F
< 50 | COc1cc2c(Nc3cc(F)ccc3F)ncnc2cc1O[C@@H]1CO[C@@H]2[C@H]1OC[C@H]2F
< 50 | COc1cc2c(Nc3ccc(Cl)c(Cl)c3)ncnc2cc1OCc1csc(C2CCNCC2)n1
< 50 | COc1cc2c(Nc3ccc(Cl)c(Cl)c3)ncnc2cc1OCc1cc(F)cc2c1OCOC2
< 50 | COCCN1CCCOC(COc2cc3ncnc(Nc4ccc(Cl)c(Cl)c4)c3cc2OC)C1 (stereo unspecified)
< 50 | CCN1CCCOC(COc2cc3ncnc(Nc4ccc(Cl)c(Cl)c4)c3cc2OC)C1 (stereo unspecified)
< 50 | COc1cc2c(Nc3ccc(Cl)c(Cl)c3)ncnc2cc1OCC1CN(CCCc2ccccc2)CCO1 (stereo unspecified)
< 50 | COc1cc2c(Nc3ccc(Br)c(Cl)c3)ncnc2cc1O[C@H]1CO[C@@H]2[C@H]1OC[C@@H]2S(C)(=O)=O
< 50 | COc1cc2c(Nc3ccc(Cl)c(Cl)c3)ncnc2cc1O[C@@H]1CO[C@@H]2[C@H]1OC[C@H]2F
< 50 | COc1cc2c(Nc3cccc(Br)c3)ncnc2cc1O[C@@H]1CO[C@@H]2[C@H]1OC[C@H]2F
< 50 | COCCN1CCOC(COc2cc3ncnc(Nc4ccc(Cl)c(Cl)c4)c3cc2OC)C1 (stereo unspecified)

IC50 [nM] | SMILES
< 50 | COc1cc2c(Nc3ccc(Cl)c(Cl)c3)ncnc2cc1OCC1CN(S(=O)(=O)CCCCl)CCO1 (stereo unspecified)
< 50 | CCN1CCN(c2nc(COc3cc4ncnc(Nc5ccc(Cl)c(Cl)c5)c4cc3OC)cs2)CC1
< 50 | COc1cc2c(Nc3cc(Cl)ccc3F)ncnc2cc1OCC1CN(C)CCO1 (stereo unspecified)
< 50 | COc1cc2c(Nc3ccc(Cl)c(Cl)c3F)ncnc2cc1OC[C@@H]1CN(C)CC(=O)N1C
< 50 | CCN1CCN(c2noc(COc3cc4ncnc(Nc5ccc(Cl)c(Cl)c5)c4cc3OC)n2)CC1
< 50 | COc1cc2c(Nc3ccc(Cl)c(Cl)c3)ncnc2cc1OCCC1OCCCO1
< 50 | COc1cc2c(Nc3ccc(Cl)c(Cl)c3)ncnc2cc1OCc1nc(CN2CCN(C)CC2)cs1
< 50 | COc1cc2c(Nc3cc(Cl)c(Br)cc3F)ncnc2cc1O[C@H]1CO[C@H]2[C@@H]1OC[C@@H]2OC
< 50 | COc1cc2c(Nc3cccc(Cl)c3C)ncnc2cc1O[C@@H]1CO[C@@H]2[C@H]1OC[C@H]2F
< 50 | COc1cc2c(Nc3ccc(Br)c(F)c3F)ncnc2cc1OCC1CN(C)CCO1 (stereo unspecified)
< 50 | COc1cc2c(Nc3cc(Br)cc(C(F)(F)F)c3)ncnc2cc1O[C@@H]1CO[C@@H]2[C@H]1OC[C@H]2F
< 50 | COc1cc2c(Nc3ccc(Br)c(Cl)c3Cl)ncnc2cc1OC[C@H]1CN2CCOC[C@H]2CO1
< 50 | CCC#CCN1CCOC(COc2cc3ncnc(Nc4ccc(Cl)c(Cl)c4)c3cc2OC)C1 (stereo unspecified)
< 50 | COc1cc2c(Nc3ccc(Cl)c(Cl)c3)ncnc2cc1OCc1noc(-c2ccccc2OC)n1
< 50 | COc1cc2c(Nc3ccc(Cl)c(Cl)c3)ncnc2cc1OCC1CN(C(=O)c2c(C)noc2C)CCO1 (stereo unspecified)
< 50 | COc1cc2c(Nc3ccc(Cl)c(Cl)c3)ncnc2cc1OCC1CN(C(=O)c2cc(F)ccc2F)CCO1 (stereo unspecified)
< 50 | COc1cc2c(Nc3ccc(Br)c(Cl)c3F)ncnc2cc1OC[C@@H]1CN(C)CC(=O)N1C
< 50 | COc1cc2c(Nc3ccc(Cl)c(Cl)c3)ncnc2cc1OCC1CN(CC2CCCCC2)CCO1 (stereo unspecified)
